Literature values in patent US20060104967A1, “Method of converting the state of proteins” (priority 2004, published 2006).
*1 amine or outer side, *2 acyl side, *3 side chain or, on linkers, in order; H or OH if unused. Where a SMILES comes first, the peptide text is derived from it. Bridges are numbered along the chain shown (N, C = ends). [ ]: non-standard residue; d: D form. Adda = CO[C@@H](Cc1ccccc1)[C@@H](C)/C=C(C)/C=C/[C@H](N[*:1])[C@H](C)C(=O)[*:2]; dAsp(3S-Me) = C[C@H](C(=O)[*:3])[C@@H](N[*:1])C(=O)[*:2]; d(γGlu) = O=C(O)[C@@H](CCC(=O)[*:2])N[*:1]; NMeDha = C=C(NC)C(=O)O

Molecular target: PP2B
Details: read-out: Ki values for PP2B, concentrations of inhibitors where the enzyme activity becomes to half

Compound | Ki
C=C1C(=O)N[C@H](C)C(=O)N[C@@H](CC(C)C)C(=O)N[C@@H](C(=O)O)[C@H](C)C(=O)N[C@@H](CCCNC(=N)N)C(=O)N[C@@H](/C=C/C(C)=C/[C@H](C)[C@H](Cc2ccccc2)OC)[C@H](C)C(=O)N[C@@H](C(=O)O)CCC(=O)N1C [microcystin LR] (R[Adda][d(γGlu)][NMeDha][dA]L[dAsp(3S-Me)]-OH; lactam N-7) | 200 µM
C=C1[C@@H](O)[C@@H]2O[C@]3(CC[C@H](/C=C/[C@@H](C)[C@@H]4CC(C)=C[C@@]5(O[C@H](C[C@@](C)(O)C(=O)O)CC[C@H]5O)O4)O3)CC[C@H]2O[C@@H]1[C@@H](O)C[C@H](C)[C@H]1O[C@@]2(CCCCO2)CC[C@H]1C [okadaic acid] | 5000 µM
